Key:
BRD9 bromodomain = BRD9 bromodomain (Homo sapiens (Human), UniProt Q9H8M2); experiment: BRD9 bromodomain TR-FRET competition binding assay
Experimental: Procedure: His-Flag-BRD9 (P133-K239; Swiss Prot Q9H8M2; SEQ ID NO:1 mgsshhhhhhenlyfq/gdykddddkgslevlfqg/[…] […]) was cloned, expressed, purified, and then treated with TEV protease. Cleaved His tag was removed by purification. The binding of a biotinylated small molecule ligand of BRD9 was assessed via the LANCE® TR-FRET platform (PerkinElmer), and the compounds were assayed for inhibitory activity against this interaction.
Results: A mixture of biotinylated-ligand and SureLight™ Allophycocyanin-Streptavidin (APC-SA, PerkinElmer AD0201) in 50 mM HEPES (pH 7.4), 50 mM NaCl, 1 mM TCEP (pH 7), 0.01% (v/v) Tween-20, 0.01% (w/v) bovine serum albumin was added to a white 384-well PerkinElmer Proxiplate Plus plate. DMSO or 3-fold serially diluted compounds were then added to the Proxiplate followed by addition of Flag-BRD9. After a 10-minute incubation at room temperature, Eu—W1024 anti-FLAG (PerkinElmer, AD0273) was added. The final reaction mixture that contained 3.75 nM biotinylated ligand, 3 nM Flag-BRD9, 7.5 nM SureLight™ Allophycocyanin-Streptavidin, and 0.2 nM Eu—W1024 anti-FLAG was incubated at room temperature for 90 minutes.
The plates were then read on a PerkinElmer Envision plate reader to determine the ratio of emission at 665 nm over 615 nm. […]

[1] = biological target: Nanoluciferase-BRD9 fusion protein (3×FLAG-NLuc-BRD9) in SYO-1 cells (Homo sapiens (Human), UniProt Q9H8M2); experiment: SYO1 BRD9 NanoLuc degradation assay; type: cell-based; conditions: SYO-1 cells, 6 hours, Table 6A
Nanoluciferase-BRD9 fusion protein (3×FLAG-NLuc-BRD9) in SYO-1 cells, sequence (Q9H8M2 whole entry, the tested form may be a part): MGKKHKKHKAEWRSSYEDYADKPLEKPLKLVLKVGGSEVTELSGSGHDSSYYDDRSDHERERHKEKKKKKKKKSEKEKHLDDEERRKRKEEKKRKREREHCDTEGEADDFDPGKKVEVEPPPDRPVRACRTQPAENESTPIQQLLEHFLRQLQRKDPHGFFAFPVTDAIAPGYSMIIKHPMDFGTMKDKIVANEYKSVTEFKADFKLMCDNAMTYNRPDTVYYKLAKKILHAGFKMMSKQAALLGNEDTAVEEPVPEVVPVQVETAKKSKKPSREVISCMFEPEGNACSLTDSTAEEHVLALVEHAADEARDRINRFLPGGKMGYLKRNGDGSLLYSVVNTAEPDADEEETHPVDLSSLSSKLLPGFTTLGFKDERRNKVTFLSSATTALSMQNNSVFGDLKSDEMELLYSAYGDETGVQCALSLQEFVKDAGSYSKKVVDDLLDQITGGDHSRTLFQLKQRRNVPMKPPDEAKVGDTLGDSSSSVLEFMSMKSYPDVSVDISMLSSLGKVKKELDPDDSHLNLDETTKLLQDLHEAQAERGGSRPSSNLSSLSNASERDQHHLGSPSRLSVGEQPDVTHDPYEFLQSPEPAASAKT
In short: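 Stable SYO-1 line expressing 3×FLAG-NLuc-BRD9, treated with 10-point 3-fold dilutions (top 1 μM final) for 6 hours. Nanoluciferase luminescence read with Nano-Glo reagent. % inhibition relative to DMSO (high control) and 1 μM reference BRD9 degrader (low control).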

BRD9 bromodomain, sequence (Q9H8M2 133-239): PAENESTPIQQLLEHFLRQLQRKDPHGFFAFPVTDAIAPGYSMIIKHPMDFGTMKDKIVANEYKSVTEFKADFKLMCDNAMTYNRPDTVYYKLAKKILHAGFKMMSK

| IC50 (BRD9 bromodomain) [nM] | IC50 [1] [nM] | SMILES |
| --- | --- | --- |
| > 100 | > 100 | COc1cc(-c2cn(C)c(=O)c3c2CCN(C(=O)NCCOCCNc2ccc4c(c2)C(=O)N(C2CCC(=O)NC2=O)C4=O)C3)c(OC)cc1CN(C)C (centres unmarked) [Compound D32, 5-[4-[(dimethylamino)methyl]-2,5-dimethoxyphenyl]-N-[2-(2-[[2-(2,6-dioxopiperidin-3-yl)-1,3-dioxoisoindol-5-yl]amino]ethoxy)ethyl]-7-methyl-8-oxo-3,4-dihydro-1H-2,7-naphthyridine-2-carboxamide formic acid] |
| > 1000 | > 1000 | COc1cc(-c2cn(C)c(=O)c3c2CCN(C(=O)CCCCCOc2cccc4c2C(=O)N(C2CCC(=O)NC2=O)C4=O)C3)cc(OC)c1CN(C)C (centres unmarked) [Compound D20, ([4-[7-(6-[[2-(2,6-dioxopiperidin-3-yl)-1,3-dioxo-2,3-dihydro-1H-isoindol-4-yl]oxy]hexanoyl)-2-methyl-1-oxo-1,2,5,6,7,8-hexahydro-2,7-naphthyridin-4-yl]-2,6-dimethoxyphenyl]methyl)(methyl)aminyl] |
| > 100 | > 1000 | COc1cc(-c2cn(C)c(=O)c3c2CCN(C(=O)NCCN(C)CCOCCOc2cccc4c2C(=O)N(C2CCC(=O)NC2=O)C4=O)C3)cc(OC)c1CN(C)C (centres unmarked) [Compound D30, 5-[4-[(dimethylamino)methyl]-3,5-dimethoxyphenyl]-N-(2-[[2-(2-[[2-(2,6-dioxopiperidin-3-yl)-1,3-dioxoisoindol-4-yl]oxy]ethoxy)ethyl](methyl)amino]ethyl)-7-methyl-8-oxo-3,4-dihydro-1H-2,7-naphthyridine-2-carboxamide formic acid] |
| > 10 | > 10 | COc1cc(-c2cn(C)c(=O)c3c2CCN(C(=O)NCCOCCNc2cccc4c2C(=O)N(C2CCC(=O)NC2=O)C4=O)C3)cc(OC)c1CN(C)C (centres unmarked) [Compound D17, 5-[4-[(dimethylamino)methyl]-3,5-dimethoxyphenyl]-N-[2-(2-[[2-(2,6-dioxopiperidin-3-yl)-1,3-dioxoisoindol-4-yl]amino]ethoxy)ethyl]-7-methyl-8-oxo-3,4-dihydro-1H-2,7-naphthyridine-2-carboxamide formic acid] |
| > 10 | > 100 | COc1cc(-c2cn(C)c(=O)c3c2CCN(C(=O)NCCOCCNc2cccc4c2C(=O)N(C2CCC(=O)NC2=O)C4=O)C3)c(OC)cc1CN(C)C (centres unmarked) [Compound D14, 5-[4-[(dimethylamino)methyl]-2,5-dimethoxyphenyl]-N-[2-(2-[[2-(2,6-dioxopiperidin-3-yl)-1,3-dioxoisoindol-4-yl]amino]ethoxy)ethyl]-7-methyl-8-oxo-3,4-dihydro-1H-2,7-naphthyridine-2-carboxamide formic acid] |
| > 100 | > 1000 | CNC(=O)N1CCc2c(c(-c3cc(OC)c(CN(C)CC(=O)NCCOCCOc4cccc5c4C(=O)N(C4CCC(=O)NC4=O)C5=O)c(OC)c3)cn(C)c2=O)C1 (centres unmarked) [Compound D24, 8-(4-(((2-((2-(2-((2-(2,6-dioxopiperidin-3-yl)-1,3-dioxoisoindolin-4-yl)oxy)ethoxy)ethyl)amino)-2-oxoethyl)(methyl)amino)methyl)-3,5-dimethoxyphenyl)-N,6-dimethyl-5-oxo-3,4,5,6-tetrahydro-2,6-naphthyridine-2 (1H)-carboxamide] |
| < 10 | < 10 | COc1cc(-c2cn(C)c(=O)c3c2CCN(C(=O)NCCCCCCCCNc2cccc4c2CN(C2CCC(=O)NC2=O)C4=O)C3)cc(OC)c1CN(C)C (centres unmarked) [Compound D29, 5-(4-((dimethylamino)methyl)-3,5-dimethoxyphenyl)-N-(8-((2-(2,6-dioxopiperidin-3-yl)-1-oxoisoindolin-4-yl)amino)octyl)-7-methyl-8-oxo-3,4,7,8-tetrahydro-2,7-naphthyridine-2 (1H)-carboxamide formic acid] |
| > 1000 | > 1000 | COc1cc(-c2cn(C)c(=O)c3c2CCN(C(=O)CCCCCCCCNc2cccc4c2C(=O)N(C2CCC(=O)NC2=O)C4=O)C3)cc(OC)c1CN(C)C (centres unmarked) [Compound D19, 4-[[9-(5-[4-[(dimethylamino)methyl]-3,5-dimethoxyphenyl]-7-methyl-8-oxo-1,2,3,4,7,8-hexahydro-2,7-naphthyridin-2-yl)-9-oxononyl]amino]-2-(2,6-dioxopiperidin-3-yl)-2,3-dihydro-1H-isoindole-1,3-dione] |
| > 10 | > 1000 | COc1cc(-c2cn(C)c(=O)c3c2CN(C(=O)N(C)C)CC3)cc(OC)c1CN(C)CCOCCN1CCN(c2ccc3c(c2)C(=O)N(C2CCC(=O)NC2=O)C3=O)CC1 (centres unmarked) [Compound D33, 8-(4-(((2-(2-(4-(2-(2,6-dioxopiperidin-3-yl)-1,3-dioxoisoindolin-5-yl)piperazin-1-yl)ethoxy)ethyl)(methyl)amino)methyl)-3,5-dimethoxyphenyl)-N,N,6-trimethyl-5-oxo-3,4,5,6-tetrahydro-2,6-naphthyridine-2 (1H)-carboxamide formic acid] |
| < 10 | > 10 | COc1cc(-c2cn(C)c(=O)c3c2CCN(C(=O)NCCCCCCCC(=O)N[C@H](C(=O)N2C[C@H](O)C[C@H]2C(=O)NCc2ccc(-c4scnc4C)cc2)C(C)(C)C)C3)cc(OC)c1CN(C)C [Compound D37, (2S,4R)-1-[(2S)-2-[8-(5-[4-[(dimethylamino)methyl]-3,5-dimethoxyphenyl]-7-methyl-8-oxo-3,4-dihydro-1H-2,7-naphthyridine-2-carbonylamino)octanamido]-3,3-dimethylbutanoyl]-4-hydroxy-N-[[4-(4-methyl-1,3-thiazol-5-yl)phenyl]methyl]pyrrolidine-2-carboxamide formic acid] |
| < 10 | < 10 | COc1cc(-c2cn(C)c(=O)c3c2CCN(C(=O)NCCCCCOc2ccc4c(c2)C(=O)N(C2CCC(=O)NC2=O)C4=O)C3)cc(OC)c1CN(C)C (centres unmarked) [Compound D22, formic acid] |
| > 10 | > 10 | COc1cc(-c2cn(C)c(=O)c3c2CCN(C(=O)NCCOCCNc2ccc4c(c2)C(=O)N(C2CCC(=O)NC2=O)C4=O)C3)cc(OC)c1CN(C)C (centres unmarked) [Compound D21, 5-[4-[(dimethylamino)methyl]-3,5-dimethoxyphenyl]-N-[2-(2-[[2-(2,6-dioxopiperidin-3-yl)-1,3-dioxoisoindol-5-yl]amino]ethoxy)ethyl]-7-methyl-8-oxo-3,4-dihydro-1H-2,7-naphthyridine-2-carboxamide formic acid] |
| > 10 | > 10 | COc1cc(-c2cn(C)c(=O)c3c2CCN(C(=O)NCCCCCOc2cccc4c2C(=O)N(C2CCC(=O)NC2=O)C4=O)C3)cc(OC)c1CN(C)C (centres unmarked) [Compound D18, 5-[4-[(dimethylamino)methyl]-3,5-dimethoxyphenyl]-N-(5-[[2-(2,6-dioxopiperidin-3-yl)-1,3-dioxoisoindol-4-yl]oxy]pentyl)-7-methyl-8-oxo-3,4-dihydro-1H-2,7-naphthyridine-2-carboxamide] |
| > 100 | > 1000 | COc1cc(-c2cn(C)c(=O)c3c2CN(C(=O)NCCOCCOCCNc2cccc4c2C(=O)N(C2CCC(=O)NC2=O)C4=O)CC3)cc(OC)c1CN(C)C (centres unmarked) [Compound D23, 8-[4-[(dimethylamino)methyl]-3,5-dimethoxyphenyl]-N-[2-[2-(2-[[2-(2,6-dioxopiperidin-3-yl)-1,3-dioxoisoindol-4-yl]amino]ethoxy)ethoxy]ethyl]-6-methyl-5-oxo-3,4-dihydro-1H-2,6-naphthyridine-2-carboxamide formic acid] |
| < 10 | > 10 | COc1cc(-c2cn(C)c(=O)c3c2CCN(C(=O)NCCCCCCCCCC(=O)N[C@H](C(=O)N2C[C@H](O)C[C@H]2C(=O)NCc2ccc(-c4scnc4C)cc2)C(C)(C)C)C3)cc(OC)c1CN(C)C [Compound D38, (2S,4R)-1-[(2S)-2-[10-(5-[4-[(dimethylamino)methyl]-3,5-dimethoxyphenyl]-7-methyl-8-oxo-3,4-dihydro-1H-2,7-naphthyridine-2-carbonylamino)decanamido]-3,3-dimethylbutanoyl]-4-hydroxy-N-[[4-(4-methyl-1,3-thiazol-5-yl)phenyl]methyl]pyrrolidine-2-carboxamide] |
| < 10 | > 10 | CNC(=O)N1CCc2c(-c3cc(OC)c(CN4CCC5(CC4)CN(C(=O)CCCCOc4ccc6c(c4)C(=O)N(C4CCC(=O)NC4=O)C6=O)CCO5)c(OC)c3)cn(C)c(=O)c2C1 (centres unmarked) [Compound D31, 5-(4-((4-(5-((2-(2,6-dioxopiperidin-3-yl)-1,3-dioxoisoindolin-5-yl)oxy)pentanoyl)-1-oxa-4,9-diazaspiro[5.5]undecan-9-yl)methyl)-3,5-dimethoxyphenyl)-N,7-dimethyl-8-oxo-3,4,7,8-tetrahydro-2,7-naphthyridine-2 (1H)-carboxamide formic acid] |
